According to PubChem BioAssay AID1508591:
Where a SMILES comes first, the peptide text is derived from it. [ ]: non-standard residue; d: D form. ξ: configuration not given here. ξLac(3-iPr) = CC(C)CC(O)C(=O)O; NMeV = CN[CH](C(=O)O)C(C)C; NMeA = CN[CH](C)C(=O)O; βAla = NCCC(=O)O

Details: rat; liver microsomes; pH 7.4; 15.0 min; 1.0 µM

| SMILES | half-life [min] |
| --- | --- |
| CC(C)(C)c1ccc(-c2nc(SCCCOc3ccccc3)n3[nH]c(=O)cc3n2)cc1 | > 30 |
| O=C(Nc1ncc(Cc2ccc(C(F)(F)F)cc2)s1)c1cn(-c2ccccc2)cn1 | > 30 |
| Cn1ccc2cc(-c3csc(N4CCC(C(N)=O)CC4)n3)ccc21 | 2.09 |
| Fc1ccc(Nc2nc(-c3ccncc3)ncc2-c2ccccc2)cc1F | 27 |
| CCN1C(=O)c2ccccc2[S@](=O)c2ccc(C(=O)N[C@H](C)c3ccc(Br)cc3)cc21 | 7.7 |
| O=C(NCC1CCN(Cc2cccc(Cl)c2)CC1)Nc1ccc(F)c(Cl)c1 | 22.7 |
| O=C1c2ccccc2-n2c1nc1ccccc1c2=O | 21.3 |
| COc1ccc(C2c3c(oc4ccc(C)cc4c3=O)C(=O)N2CCCN2CCOCC2)cc1OC (stereo not drawn) | 7.59 |
| Fc1cc(Nc2nc(-c3ccncc3)nc3ccccc23)ccc1-c1ccc2[nH]ncc2c1 | > 30 |
| Cn1cc(C2=C(c3cn(CCCSC(=N)N)c4ccccc34)C(=O)NC2=O)c2ccccc21 | 4.4 |
| O=C(NC1CC1)C1CCCN1C(=O)c1cccc(-c2ccccn2)c1 (stereo not drawn) | > 30 |
| O=C(Nc1ncccc1O)c1ccc(S(=O)(=O)Nc2ccccc2)cc1 | 2.58 |
| COc1cccc(Cn2c(=O)n(-c3cccc(Cl)c3C)c(=O)c3c4c(sc32)CN(C(C)=O)CC4)c1 | 3.17 |
| O=C(NC1CCCc2c1[nH]c1c(Cl)cccc21)c1ccc2c(c1)OCO2 (stereo not drawn) | 12.8 |
| CCOc1ccc(C(=O)Nc2ccc(S(=O)(=O)N3CCCCC3c3cccnc3)cc2)cc1 (stereo not drawn) | 1.71 |
| CCOc1cc(F)c(CCNC(=O)c2cc3sccc3n2Cc2ccccc2)cc1OCC | 1.8 |
| CCc1ccc(C(=O)Nc2cc(CN3CCN(C)CC3)cc(C(F)(F)F)c2)cc1C#Cc1cnc2ccnn2c1 | > 30 |
| CCOC(=O)c1ccc(N2C(=O)c3n[nH]c(-c4ccco4)c3C2c2ccc(C)cc2)cc1 (stereo not drawn) | 8.24 |
| COc1ccc2[nH]cc(CCNC(=O)c3cnn(-c4ccc(C)cc4)c3C3CCN(C(=O)OC(C)(C)C)CC3)c2c1 | 1.65 |
| Cc1ccnc(NC(=S)N2CCN(c3ccc(Cl)cc3Cl)CC2)c1 | > 30 |
| COc1ncccc1-c1cc2c(ccn2C(C)C)c(C(=O)NCc2c(C)cc(C)[nH]c2=O)n1 | 5.49 |
| CCCCOC(=O)c1ccnc2cc(C(OCCN3CCCCC3)c3ccccc3Cl)sc12 (stereo not drawn) | 3.32 |
| Cc1ccc(S(=O)(=O)Nc2cnccc2C(=O)Nc2nc(-c3ccc(-c4ccccc4)cc3)cs2)cc1 | > 30 |
| CCCN(C(=O)c1sc2nc3n(c(=O)c2c1C)CCCC3)c1ccccc1C | 1.36 |
| CC(=O)c1c(C)[nH]c(C(=O)Nc2ccc(Cl)cc2)c1C | > 30 |

| SMILES | half-life [min] |
| --- | --- |
| Cc1ccnc(NC(=O)C2CC(=O)N(c3n[nH]c4cc(Br)ccc34)C2)c1 (stereo not drawn) | > 30 |
| CC1(C)CC2CC(C)(CN2S(=O)(=O)c2ccc(C(=O)Nc3cccc(S(=O)(=O)N4CCOCC4)c3)cc2)C1 (stereo not drawn) | 2.8 |
| CCCCC(C)/C=C(C)/C=C(\C)C(=O)NC1=CC(O)(/C=C/C=C/C=C/C(=O)NC2=C(O)CCC2=O)C2OC2C1=O (stereo not drawn) | 1.83 |
| CCC(C)C1NC(=O)C2CCCN2C(=O)C(CC(C)C)OC(=O)CCNC(=O)C(C)N(C)C(=O)C(C(C)C)N(C)C1=O (stereo not drawn) (cyclo([ξLac(3-iPr)]PI[NMeV][NMeA][βAla]); configuration not given here) | 18.1 |
| CN(C)C(=O)c1ccc(-c2cc[nH]c(=O)c2N)cc1 | > 30 |
| CN1CCN(C(=O)Cc2c[nH]c3ncc(-c4ccccc4Oc4ccccc4)cc23)CC1 | 1.72 |
| COc1cc2c(c(OC)c1OC)-c1ccc(OC)c(=O)cc1[C@@H](NC(C)=O)CC2 | > 30 |
| CC1=C(C(=O)Nc2ccccc2Cl)C(c2ccccc2Br)N=C(Nc2nc3ccccc3o2)N1 (stereo not drawn) | > 30 |
| Cc1cccc(-n2cnc3cc(C(=O)N4CCCCC4)ccc32)c1 | 5.85 |
| Cc1cc(-c2nnc3n2CCCCC3)c(C)n1-c1ccc(F)cc1 | 3.2 |
| Fc1ccc(Nc2nc(-c3ccncc3Cl)nc3ccccc23)cc1F | 19 |
| COc1cc(NS(=O)(=O)c2ccc(C)cc2)c(C(=O)Nc2nc(-c3ccccc3)cs2)cc1OC | 9 |
| C=Cc1ccc(C(=O)N2CCCC(CCC(=O)N3CCN(c4ccccn4)CC3)C2)cc1 (stereo not drawn) | 1.5 |
| Cn1c(=O)c2cc(C(=O)NCCCN3CCN(c4ccccc4F)CC3)sc2c2ccccc21 | 1.97 |
| Cc1ccccc1C(=O)NC1CCN(c2ccc3nnc(C4CC4)n3n2)CC1 | > 30 |
| Cc1ccnc(NC(=S)N2CCC(c3cccc(C(F)(F)F)c3)CC2)c1 | 24 |
| Cc1ccc(S(=O)(=O)Nc2cnccc2C(=O)Nc2nc(-c3ccc4c(c3)CCCC4)cs2)cc1 | 2.3 |
| Cc1ccc(-c2cc(C(=O)Nc3ccc(-c4noc(=O)[nH]4)cc3)c3ccccc3n2)cc1C | > 30 |
| COc1cc(C(=O)Nc2nc(-c3ccccc3)cs2)ccc1NS(=O)(=O)c1ccc(C)cc1 | 5.2 |
| Cc1cc(-c2nnc3n2CCCCC3)c(C)n1-c1ccc(Cl)cc1 | 1.9 |
| CCCOC(c1cc2nccc(C(=O)O)c2[nH]1)c1ccccc1Cl (stereo not drawn) | 23.1 |
| CCc1ccc(NC(=O)c2[nH]c(C)c(C(C)=O)c2C)cc1S(=O)(=O)Nc1cccc(C#N)c1 | 6.1 |
| Cc1ccnc(NC(=S)N2CCCC(Nc3cccc(C(F)(F)F)c3)C2)c1 (stereo not drawn) | 11 |
| COc1ccc(C2Nc3ccccc3C(=O)N2Cc2ccco2)cc1COc1c(C)cc(NC(C)=O)cc1C (stereo not drawn) | 1.6 |
| O=C1CCCC2=C1C(c1[nH]ncc1Cl)N=C(Nc1nc3cccc(Cl)c3o1)N2 (stereo not drawn) | 4.5 |

| SMILES | half-life [min] |
| --- | --- |
| NC(=O)C1CCN(c2nc(-c3ccc(Oc4ccccc4)cc3)cs2)CC1 | 18.5 |
| Cc1cc(C)nc(NC(=S)N2CCN(c3ccc(Cl)cc3[N+](=O)[O-])CC2)c1 | 15 |
| O=C1NC(=S)NC(=O)C1=Cc1cccn1-c1ccc(O)cc1 | 10.5 |
| Cc1nc2nc(NC(=O)c3ccc(C(C)(C)C)cc3)[nH]n2c(=O)c1Cl | 21 |
| O=C1NCc2cc(-c3cc4c(ccn4Cc4ccncc4)c(N4CCOCC4)n3)ccc21 | 13.4 |
| O=C1CCCC2=C1C(c1[nH]ncc1Cl)N=C(Nc1nc3cc(F)ccc3o1)N2 (stereo not drawn) | 17 |
| Cc1ccc(N2CCC(CNc3nc(-c4ccccc4C(C)C)ncc3F)CC2)cn1 | 2.4 |
| COc1cc2c(Nc3ccc(Br)cc3F)ncnc2cc1OCC1CCN(C)CC1 | > 30 |
| Cc1cccc(-c2noc([C@@H]3Cc4nc[nH]c4CN3C(=O)CC(C)(C)CC(=O)O)n2)c1 | > 30 |
| CC(C)c1ccccc1-c1nc2c(c(NCc3ccc(-c4cccnc4)cc3)n1)CNC2 | 6.21 |
| O=C(Nc1ncc(Cc2ccc(C(F)(F)F)cc2)s1)c1cnc(-c2ccccc2)o1 | > 30 |
| CCC(CC)(NC(=O)C(C)C)C(=O)N[C@@H](CCCN=C(N)N)C(=O)NC1(C(=O)NC(c2ccc(F)cc2)c2ccc(F)cc2)CCCC1 | > 30 |
| NC(=O)C1CCN(c2nccc(-c3ccc(Br)cc3)n2)CC1 | 19.3 |
| Cc1ccc(CNc2nc(-c3ccccc3C(F)(F)F)nc3ccccc23)s1 | 1.7 |
| Cc1cc(C)cc(C(=O)Nc2ccc3c(N4CCCC4)ncnc3c2)c1 | 8.23 |
| N=c1c2c(n(Cc3ccccc3)c3c1CCC3)CCC2 | 4.04 |
| COC(=O)CNC(=O)c1nc(-c2ccccc2OC)c2ccccn12 | 5.38 |
| Cc1cccc2c1NC(=O)/C2=C/c1cc(Cl)c(O)c(Cl)c1 | 26 |
| O=C(C1CC(=O)N(c2n[nH]c3ccccc23)C1)N1CCC(c2noc3cc(F)ccc23)CC1 (stereo not drawn) | 19.1 |
| Cc1ccc(S(=O)(=O)Nc2cnccc2C(=O)NCc2ccccc2)cc1 | 5.9 |
| O=C(Nc1nc(-c2ccccc2)cs1)c1ccncc1NS(=O)(=O)c1cccc(Cl)c1 | 5 |
| CN(C)CCNC(=O)c1nc(-c2ccccc2)cc2[nH]ccc12 | 1.92 |
| O=S(=O)(Nc1nc2ccccc2s1)c1ccc(NCc2cccc(Cl)c2O)cc1 | > 30 |
| CCN1CCN(CC(=O)Nc2ccc(-c3cccc4c(=O)cc(N5CCOCC5)oc34)c3sc4ccccc4c23)CC1 | > 30 |
| O=C(Oc1ccc[nH]c1=O)c1cc([N+](=O)[O-])cc([N+](=O)[O-])c1 | 1.46 |

| SMILES | half-life [min] |
| --- | --- |
| Cc1cc(Oc2ccc(N)cn2)ccc1Cl | 17.8 |
| O=S(=O)(Nc1ccc(-c2ccccc2)cc1)c1ccc(NCc2cccc(Cl)c2O)cc1 | 5.6 |
| CC(=O)c1ccc(N2CCN(C(=O)c3ccc4c(c3)CC(=O)N4)CC2)cc1 | > 30 |
| NC(=O)C1CCN(c2nc(-c3ccc([N+](=O)[O-])cc3)cs2)CC1 | 5.53 |
| Cc1ccc(S(=O)(=O)Nc2ccc(C)cc2C(=O)Nc2nc(-c3ccccc3)cs2)cc1 | 3.7 |
| Cc1nc2sccn2c(=O)c1S(=O)(=O)Nc1ccc(N2CCN(C)CC2)cc1 | 17.8 |
| COc1ccccc1-c1cc2c(ccn2C)c(C(=O)NCC2CCN(C)C(=O)C2)n1 (stereo not drawn) | > 30 |
| Cc1cnc(-c2ccccc2C2COC2)nc1NCc1ccc(-c2cccnc2)cc1 | 12 |
| O=C(Nc1nc(-c2ccc(Cl)s2)cs1)c1cccs1 | 19.5 |
| COc1cccc(-c2noc(Nc3ccc4c(c3)OCCO4)n2)c1 | 20.7 |
| O=C1/C(=C\c2ccccc2)C[C@@]2(O)C3Cc4ccc(O)c5c4[C@@]2(CCN3CC2CC2)[C@H]1O5 | 3.37 |
| CN1CCN(C(c2ccccc2)c2ccc(Cl)cc2)CC1 (stereo not drawn) | 3 |
| O=C(Cc1cccc(OC(F)(F)F)c1)Nc1ccc(CCCCc2nnc(NC(=O)Cc3ccccn3)s2)nn1 | 20.9 |
| Fc1ccc(-c2csc3ncnc(Sc4nnnn4C4CC4)c23)cc1 | 4.2 |
| CC(C)Oc1cccc(C2CC(=O)Nc3cc4c(cc32)OCO4)c1 (stereo not drawn) | 3.46 |
| NCC(=O)Nc1cncc(-c2nn3c(=O)cc(N4CCNCC4)nc3s2)c1 | > 30 |
| Nc1c(C(=O)Nc2ccc(F)cc2)sc2nc(-c3cccs3)cc(C(F)(F)F)c12 | > 30 |
| Cc1nc(-c2ccco2)cc([C@H]2CN3CC[C@H]2C[C@@H]3CNC(=O)NC2CCCCC2)n1 | 29.6 |
| CC(C)c1ccc(OCc2nc3c(n2Cc2ccccc2)C(=O)N(CC2CC2)CCN3)cc1 | 1.82 |
| Clc1ccccc1Nc1nc(-c2ccncc2)nc2ccccc12 | 11 |
| O=C1CCCC2=C1C(c1[nH]ncc1Br)N=C(Nc1nc3ccccc3o1)N2 (stereo not drawn) | 14 |
| CC(C)(C)OC(=O)N[C@@H](Cc1ccc(O[S+](=O)([O-])c2cccc3cnccc23)cc1)C(=O)N1CCN(Cc2ccccc2)CC1 | 1.6 |
| c1cnc(N2CCN(Cc3c[nH]c4ccccc34)CC2)nc1 | 1.6 |
